The nature of data set [1]: Pharmacokinetics following single administration in SD rat. Set-up: species or system SD rats. Conditions: in vivo, sc, 50 nmol/kg. The protocol:
The compound is administrated to male SD rats (230-268 g, n=3) at a dose of 50.0 nmol/kg (s.c.) or 25.0 nmol/kg (i.v.). […] 30.0 μL of thawed plasma sample is taken. 150 μL of acetonitrile solution (containing 5 ng mL^−1 Verapamil, 50 ng·mL^−1 Glibenclamide, 200 ng·mL^−1 Tolbutamide and 200 ng·mL^−1 Diclofenac) are added to precipitate protein. The mixture is vortexed for 5 minutes, and centrifuged at 3700 rpm for 8 minutes. 70.0 μL of the supernatant is taken, into which 70.0 μL of 0.5% aqueous formic acid solution is added. The mixture is vortexed for 5 minutes. 15 μL of the mixture solution is sampled and injected into the LC-MS/MS to determine the drug concentration in plasma. 20.0 μL of thawed plasma sample is taken. 60 μL of acetonitrile solution (containing 5 ng mL^−1 Verapamil, 50 ng·mL^−1 Glibenclamide, 200 ng·mL^−1 Tolbutamide and 200 ng·mL^−1 Diclofenac) are added to precipitate protein. […] The mixture is vortexed for 10 minutes. 10.0 μL of the mixture solution is sampled and injected into the LC-MS/MS to determine the drug concentration in plasma. 30.0 μL of thawed plasma sample is taken. 150 μL of acetonitrile solution (containing 5 ng mL^−1 Verapamil, 50 ng mL^−1 Glibenclamide, 200 ng·mL^−1 Tolbutamide and 200 ng·mL^−1 Diclofenac) are added to precipitate protein. The mixture is vortexed for 5 minutes, and centrifuged at 3700 rpm for 8 minutes. 70.0 μL of the supernatant is taken, into which 70.0 μL of 0.5% aqueous formic acid solution is added. The mixture is vortexed for 5 minutes. 10.0 μL of the mixture solution is sampled and injected into the LC-MS/MS to determine the drug concentration in plasma.

Data set [2] in a line: Pharmacokinetics in C57 mice. The following applies: mouse, in vivo. Here is the method: After subcutaneous or intravenous administration to C57 mice, plasma is collected and the drug concentration in plasma is determined to illustrate the in vivo pharmacokinetic properties of the compound according to the present invention. […] 20.0 μL of thawed plasma sample is taken. 20 μL of 50% aqueous methanol solution (containing 100 ng mL^−1 internal standard) and 60 μL of acetonitrile are added sequentially to precipitate protein. The mixture is vortexed for 5 minutes, and centrifuged at 3700 rpm for 8 minutes. 50.0 μL of the supernatant is taken, into which 50.0 μL of 0.5% aqueous formic acid solution is added. The mixture is vortexed for 5 minutes. 50 μL of the mixture solution is sampled and injected into the LC-MS/MS to determine the drug concentration in plasma.

The nature of data set [3]: Pharmacokinetics in cynomolgus monkeys. The following applies: cynomolgus monkey, in vivo, sc, 25 nmol/kg. The protocol: After subcutaneous or intravenous administration to cynomolgus monkeys, plasma is collected and the drug concentration in plasma is determined to illustrate the in vivo pharmacokinetic properties of the compound according to the present invention. The compound is dissolved in 1.4% PG in 8 mM Na2HPO4 Buffer (pH 7.39), and filtered through a filter membrane (PTFE, 0.45 μm) to obtain 25 and 12.5 nmol/mL solution of the compound respectively. The obtained solutions are administered to cynomolgus monkeys (4-8 kg) at a dose of 25 nmol/kg subcutaneously (s.c.) or 12.5 nmol/kg intravenously (i.v.). […] The blood samples are centrifuged at 2200 g for 10 minutes to obtain a plasma, which is stored at −90° C. to −60° C. for further analysis and assay.
70.0 μL of thawed plasma sample is taken. 70 μL of acetonitrile (containing 1 ng/ml of the internal standard) is added to precipitate protein. The mixture is vortexed for 1 minute, and centrifuged at 14000 rpm for 10 minutes. 60.0 μL of the supernatant is taken, into which 60.0 μL of 0.5% aqueous formic acid solution is added. The mixture is vortexed for 5 minutes. 10 μL of the mixture solution is sampled and injected into the LC-MS/MS to determine the drug concentration in plasma.
Based on the drug concentration in plasma of the compounds in the cynomolgus monkeys, the pharmacokinetic parameters are calculated by applying the software Winnolin 8.2 in a non-compartmental model, and the results are shown in Table 9 and Table 10 below.

The format of data set [4] is in vivo. Conditions: rat, in vivo, male SD rats. The protocol:
(§1) 77 SD male rats (SPF grade) are selected and randomly divided into 10 groups based on body weight. Group 1 is the vehicle control group, including 5 animals. […] Group 5 to Group 7 are the groups administrated with the test substance 1; and Group 8 to Group 10 are the groups administrated with the test substance 2, each group including 8 animals, wherein 5 animals for primary test, and 3 animals for toxicokinetics test, and the administration dose is 1, 3 and 10 mg/kg respectively. Each of the above groups is continuously administered twice a week for 2 weeks (administrating at Day 1, Day 5, Day 8, Day 12 and Day 15).
(§2) During the experiment, the cage condition monitoring, detailed clinical observations, determination of the food consumption, determination of body weight, measurement of the blood biochemical and hematology indicator, investigation of the gross anatomy, weighing of the organ, studying on toxicokinetic are performed on all the groups of the animals.
(§3) Original data during each time period is tabulated. The average values and standard deviations and/or group change are calculated for each assay endpoint based on the group and sex. For each endpoint, the administrated group will be compared with the control group in the following aspect. A logarithmic conversion is performed to the endpoint data as desired prior to the start of the specific analyses.

The test system of data set [5] is SD male rats. The data set is classed as in vivo. The protocol:
as §1, §2, §3

Each structure is given as a SMILES string. Read-outs that look alike come from different tables or passages of the source. Some results are limits rather than exact numbers.

Turning to `CC[C@H](C)[C@H](NC(=O)C(C)(C)NC(=O)[C@H](Cc1ccc(O)cc1)NC(=O)[C@H](CC(=O)O)NC(=O)[C@H](CO)NC(=O)[C@@H](NC(=O)C(C)(Cc1ccccc1)NC(=O)[C@@H](NC(=O)CNC(=O)[C@H](CCC(=O)O)NC(=O)C(C)(C)NC(=O)[C@@H](N)Cc1ccc(O)cc1)[C@@H](C)O)[C@@H](C)O)C(=O)NC(C)(C)C(=O)N[C@@H](CC(C)C)C(=O)N[C@@H](CC(=O)O)C(=O)N[C@@H](CCCCN)C(=O)N[C@@H](CCC(N)=O)C(=O)N[C@@H](C)C(=O)N[C@@H](CCC(N)=O)C(=O)N[C@@H](C)C(=O)N[C@@H](CCC(=O)O)C(=O)N[C@@H](Cc1ccccc1)C(=O)N[C@H](C(=O)N[C@@H](CCCCNC(=O)COCCOCCNC(=O)COCCOCCNC(=O)CC[C@H](NC(=O)CCCCCCCCCCCCCCCCCCCCC(=O)O)C(=O)O)C(=O)N[C@@H](Cc1c[nH]c2ccccc12)C(=O)N[C@@H](CC(C)C)C(=O)N[C@@H](CC(C)C)C(=O)N[C@@H](CCCCN)C(=O)NCC(=O)NCC(=O)N1CCC[C@H]1C(=O)N[C@@H](CO)C(=O)N[C@@H](CO)C(=O)NCC(=O)N[C@@H](C)C(=O)N1CCC[C@H]1C(=O)N1CCC[C@H]1C(=O)N1CCC[C@H]1C(=O)N[C@@H](CO)C(=O)N[C@@H](CCCCN)C(N)=O)C(C)C` (some centres unmarked) [P014], the MRT inf in data set [1] was 30 ± 1.01 h; in data set [2] (iv) it was 19.2 h; in data set [2] (sc), 30.3 h; in data set [3], 77.4 ± 13.5 h. Besides, the MRT last in data set [1] was 26.2 ± 0.781 h; in data set [2] (iv) it was 15.7 h; in data set [2] (sc), 22.9 h; in data set [3] it was 74.2 ± 13.8 h. For the same compound, the MTD is 1.98 µmol/kg in data set [4] (MTD for 2 weeks, twice a week) and > 10 mg/kg in data set [4] (continuously administered twice a week for 2 weeks). Moreover, the “Toxicokinetic: Cmax and AUC versus dose” value in data set [5] (male SD rats, 1, 3, 10 mg/kg) is “increase nearly proportionally to the dose”. In data set [5] (male SD rats, continuously administered twice a week for 2 weeks), the “Toxicokinetic: accumulation” value is recorded as “no substantial accumulation”. Also, the “Safety Window (based on dosage)” value in data set [5] (rat MTD for 2 weeks vs efficacy dose in db/db mice) was 1319. For the same compound, the “Safety Window (based on exposure AUClast)” value in data set [5] (rat, in vivo) was determined as 596. Moreover, in data set [5] (rat, in vivo), the “dose at which decrease of the body weight is observed after the first administration” value is listed as ≥ 1 mg/kg.

On to `CC[C@H](C)[C@H](NC(=O)C(C)(C)NC(=O)[C@H](Cc1ccc(O)cc1)NC(=O)[C@H](CC(=O)O)NC(=O)[C@H](CO)NC(=O)[C@@H](NC(=O)C(C)(Cc1ccccc1)NC(=O)[C@@H](NC(=O)CNC(=O)[C@H](CCC(=O)O)NC(=O)C(C)(C)NC(=O)[C@@H](N)Cc1ccc(O)cc1)[C@@H](C)O)[C@@H](C)O)C(=O)NC(C)(C)C(=O)N[C@@H](CC(C)C)C(=O)N[C@@H](CC(=O)O)C(=O)N[C@@H](CCCCN)C(=O)N[C@@H](CCC(N)=O)C(=O)N[C@@H](C)C(=O)N[C@@H](CCC(N)=O)C(=O)N[C@@H](C)C(=O)N[C@@H](CCC(=O)O)C(=O)N[C@@H](Cc1ccccc1)C(=O)N[C@H](C(=O)N[C@@H](CCCCN)C(=O)N[C@@H](Cc1c[nH]c2ccccc12)C(=O)N[C@@H](CC(C)C)C(=O)N[C@@H](CC(C)C)C(=O)N[C@@H](CCCCNC(=O)COCCOCCNC(=O)COCCOCCNC(=O)COCCOCCNC(=O)CC[C@H](NC(=O)CCCCCCCCCCCCCCCCCCCCC(=O)O)C(=O)O)C(=O)NCC(=O)NCC(=O)N1CCC[C@H]1C(=O)N[C@@H](CO)C(=O)N[C@@H](CO)C(=O)NCC(=O)N[C@@H](C)C(=O)N1CCC[C@H]1C(=O)N1CCC[C@H]1C(=O)N1CCC[C@H]1C(=O)N[C@@H](CO)C(=O)N[C@@H](CCCCN)C(N)=O)C(C)C` (some centres unmarked) [P020], for which the MRT inf was determined as 37.1 ± 0.636 h in data set [1], 21.8 h in data set [2] (iv), 29.4 h in data set [2] (sc) and 103 ± 13.1 h in data set [3]. Further, the MRT last in data set [1] turned out to be 29.5 ± 4.68 h; in data set [2] (iv), 16.8 h; in data set [2] (sc), 21.8 h; in data set [3], 97.5 ± 9.67 h.
